Structures can show the parent of a compound that is named as a salt. Where two headings read alike, the source gives them in different places.
Target: SARS-CoV-2 3CLpro (Severe acute respiratory syndrome coronavirus 2, UniProt P0DTD1)
Experiment: biochemical
Format: biochemical
Set-up: Replicate_1 / Replicate_2 / mean / mean (LOPAC_screen_w_protease): unit not given here
Conditions: for inhibition at 5 µM: 4 h
[1] = sheet LOPAC_screen_w_protease, primary screen with protease, 5 µM, mean of two replicates, read-out: mean
[2] = sheet LOPAC_screen_w_protease, primary screen with protease, 5 µM, replicate 1, read-out: Replicate_1
[3] = sheet LOPAC_screen_w_protease, primary screen with protease, 5 µM, replicate 2, read-out: Replicate_2
[4] = sheet LOPAC_screen_w_protease, primary screen at 5 µM, mean of two replicates
[5] = sheet LOPAC_screen_w_protease, primary screen at 5 µM, replicate 1
[6] = sheet LOPAC_screen_w_protease, primary screen at 5 µM, replicate 2
[7] = LOPAC1280 primary screen with protease, 5 µM compound, mean of the two replicates
[8] = LOPAC1280 primary screen with protease, 5 µM compound, replicate 1
[9] = LOPAC1280 primary screen with protease, 5 µM compound, replicate 2
[10] = sheet LOPAC_screen_w_protease, primary screen with protease, mean of two replicates
[11] = sheet LOPAC_screen_w_protease, primary screen with protease, replicate 1
[12] = sheet LOPAC_screen_w_protease, primary screen with protease, replicate 2
[13] = sheet LOPAC_screen_w_protease, LOPAC1280 primary screen at 5 µM, with protease, replicate 1, read-out: Replicate_1
[14] = sheet LOPAC_screen_w_protease, LOPAC1280 primary screen at 5 µM, with protease, replicate 2, read-out: Replicate_2
[15] = LOPAC1280 primary screen with protease, 5 µM compound, mean of two replicates
[16] = sheet LOPAC_screen_w_protease, primary screen with protease, 5 µM, mean of two replicates
[17] = sheet LOPAC_screen_w_protease, primary screen with protease, 5 µM, replicate 1
[18] = sheet LOPAC_screen_w_protease, primary screen with protease, 5 µM, replicate 2
[19] = sheet LOPAC_screen_w_protease, LOPAC1280 primary screen with protease, 5 µM compound, mean of the two replicates, read-out: mean
[20] = sheet LOPAC_screen_w_protease, LOPAC1280 primary screen with protease, 5 µM compound, replicate 1, read-out: Replicate_1
[21] = sheet LOPAC_screen_w_protease, LOPAC1280 primary screen with protease, 5 µM compound, replicate 2, read-out: Replicate_2
[22] = LOPAC1280 primary screen with protease, 5 µM compound, replicate 1, read-out: Replicate_1 (LOPAC_screen_w_protease)
[23] = LOPAC1280 primary screen with protease, 5 µM compound, replicate 2, read-out: Replicate_2 (LOPAC_screen_w_protease)
[24] = sheet LOPAC_screen_w_protease, primary screen at 5 µM, mean of two replicates, read-out: mean (LOPAC screen with protease)
[25] = sheet LOPAC_screen_w_protease, primary screen at 5 µM, replicate 1, read-out: Replicate_1 (LOPAC screen with protease)
[26] = sheet LOPAC_screen_w_protease, primary screen at 5 µM, replicate 2, read-out: Replicate_2 (LOPAC screen with protease)
[27] = read-out: Replicate_1 (LOPAC_screen_w_protease)
[28] = read-out: Replicate_2 (LOPAC_screen_w_protease)

O=C(Nc1ccc([N+](=O)[O-])cc1Cl)c1cc(Cl)ccc1O [Niclosamide]
inhibition at 5 µM (read-out: Replicate_1): 5.53% | inhibition at 5 µM (read-out: Replicate_2): 4% | inhibition at 5 µM (read-out: mean): 4.76%

CCCN1C[C@H](CSC)C[C@@H]2c3cccc4[nH]cc(c34)C[C@H]21 [Pergolide methanesulfonate]
inhibition at 5 µM [1]: 0.241% | inhibition at 5 µM [2]: 0.0285% | inhibition at 5 µM [3]: 0.454%

Br.Br.NC(N)=NCCSSCCN=C(N)N [Guanidinoethyl disulfide dihydrobromide]
mean (LOPAC screen with protease) [4]: 36.2152 | Replicate_1 (LOPAC screen with protease) [5]: 35.2116 | Replicate_2 (LOPAC screen with protease) [6]: 37.2188

CN(C(=O)Cc1ccc(Cl)c(Cl)c1)C(CN1CCCC1)c1cccc(OCC(=O)O)c1.Cl (stereo not drawn) [ICI 204,448 hydrochloride]
mean (LOPAC_screen_w_protease) [7]: 1.925 | Replicate_1 (LOPAC_screen_w_protease) [8]: 3.897 | Replicate_2 (LOPAC_screen_w_protease) [9]: -0.04714

CC(N)(Cc1ccc(O)c(O)c1)C(=O)O (racemic)
mean (LOPAC screen with protease) [4]: 6.44 | Replicate_1 (LOPAC screen with protease) [5]: 5.736 | Replicate_2 (LOPAC screen with protease) [6]: 7.145

COc1ccccc1NC(=O)Nc1nc(-c2cccnc2)nc2ccccc12 [VUF 5574]
mean [10]: 2.164 | Replicate_1 [11]: 1.496 | Replicate_2 [12]: 2.8319

c1ccc2c(c1)CCCC2C1=NCCN1 (stereo not drawn) [Tetrahydrozoline hydrochloride]
inhibition at 5 µM (sheet LOPAC_screen_w_protease, primary screen with protease, mean of two replicates, read-out: mean): 2.26% | inhibition at 5 µM (sheet LOPAC_screen_w_protease, primary screen with protease, replicate 1, read-out: Replicate_1): 1.87% | inhibition at 5 µM (sheet LOPAC_screen_w_protease, primary screen with protease, replicate 2, read-out: Replicate_2): 2.65%

C[N+]1(C)[C@@H]2C[C@@H](OC(=O)[C@H](CO)c3ccccc3)C[C@H]1[C@@H]1O[C@@H]12 [(-)-Scopolamine methyl bromide]
inhibition at 5 µM (sheet LOPAC_screen_w_protease, LOPAC1280 primary screen at 5 µM, with protease, mean of two replicates, read-out: mean): -1.17% | inhibition at 5 µM [13]: 0.833% | inhibition at 5 µM [14]: -3.16%

COc1ccc(C(=O)NCc2cccnc2)cc1C(=O)NCc1cccnc1 [Picotamide]
inhibition at 5 µM (sheet LOPAC_screen_w_protease, LOPAC1280 primary screen at 5 µM, with protease, mean of the two replicates, read-out: mean): 0.551% | inhibition at 5 µM [13]: 1.7% | inhibition at 5 µM [14]: -0.597%

COc1cc2c(cc1C(F)(F)F)N(C(=O)Nc1cc(F)cc(-c3cccnc3)c1)CC2 [SB 228357]
mean [10]: 2.5367 | Replicate_1 [11]: 3.509 | Replicate_2 [12]: 1.565

N[C@@H](CS(=O)O)C(=O)O [L-Cysteinesulfinic Acid]
mean (LOPAC_screen_w_protease) [15]: 1.669 | Replicate_1 (LOPAC_screen_w_protease) [8]: 1.739 | Replicate_2 (LOPAC_screen_w_protease) [9]: 1.598

CCCCC/C=C\C/C=C\C/C=C\C/C=C\CCCC(=O)NCC(=O)O [N-arachidonylglycine]
mean [16]: 0.3785 | Replicate_1 [17]: 1.728 | Replicate_2 [18]: -0.9708

Cc1ccccc1CNc1ncnc2c1ncn2[C@@H]1O[C@H](CO)[C@@H](O)[C@H]1O [Metrifudil]
inhibition at 5 µM [19]: 4.56% | inhibition at 5 µM [20]: 4.09% | inhibition at 5 µM [21]: 5.03%

O=C(O)c1ccccc1Nc1cccc(OCc2ccc3ccccc3n2)c1 [SR 2640]
inhibition at 5 µM [22]: 1.95% | inhibition at 5 µM [23]: 1.04% | mean (LOPAC_screen_w_protease) [15]: 1.4964

COc1cc2nc(N3CCN(C(=O)C4COc5ccccc5O4)CC3)nc(N)c2cc1OC (stereo not drawn) [Doxazosin mesylate]
inhibition at 5 µM [22]: 3.96% | inhibition at 5 µM [23]: -0.00681% | mean (LOPAC_screen_w_protease) [7]: 1.977

N#CC(C#N)=Cc1cc(O)c(O)c(O)c1 [Tyrphostin 25]
inhibition at 5 µM [24]: 8.52% | inhibition at 5 µM [25]: 10.5% | inhibition at 5 µM [26]: 6.57%

C[C@H](Cc1ccc(OCC(=O)[O-])cc1)NC[C@H](O)c1cccc(Cl)c1.[Na+] [BRL 37344 sodium]
mean [10]: 2.226 | Replicate_1 [11]: 0.8642 | Replicate_2 [12]: 3.588

c1ccc(C2CN3CCSC3=N2)cc1 (stereo not drawn) [Tetramisole hydrochloride]
inhibition at 5 µM (read-out: Replicate_1): 1.43% | inhibition at 5 µM (read-out: Replicate_2): -2.01% | inhibition at 5 µM (read-out: mean): -0.287%

CC(C)NCC(O)COc1ccc(CCOCC2CC2)cc1 (stereo not drawn) [Betaxolol hydrochloride]
inhibition at 5 µM (read-out: Replicate_1): 0.905% | inhibition at 5 µM (read-out: Replicate_2): 3.87% | inhibition at 5 µM (read-out: mean): 2.39%

COc1cc(CC(C)N)c(OC)cc1I.Cl (racemic) [(±)-DOI hydrochloride]
Replicate_1: 4.323 | Replicate_2: 2.796 | mean: 3.56

Cc1ccccc1N1C(=O)c2cc(S(N)(=O)=O)c(Cl)cc2NC1C (stereo not drawn) [Metolazone]
inhibition at 5 µM [19]: 5.24% | inhibition at 5 µM [20]: 4.55% | inhibition at 5 µM [21]: 5.92%

COc1cccc(NC(=O)/C=C/c2ccc(Cl)cc2)c1 [SB-366791]
mean [10]: 2.336 | Replicate_1 [11]: 3.003 | Replicate_2 [12]: 1.669

CN(C)c1cc2c(Nc3ccc4c(cnn4Cc4ccccc4)c3)ncnc2cn1 [GW2974]
mean (LOPAC_screen_w_protease) [15]: 1.489 | Replicate_1 (LOPAC_screen_w_protease) [8]: 2.805 | Replicate_2 (LOPAC_screen_w_protease) [9]: 0.1722

Cl.c1ccc([C@H]2CN3CCSC3=N2)cc1 [(-)-Tetramisole hydrochloride]
Replicate_1: 0.0709 | Replicate_2: 1.236 | mean: 0.6536

O=C(N[C@@H](Cc1ccccc1)C(=O)CCl)OCc1ccccc1 [Z-L-Phe chloromethyl ketone]
inhibition at 5 µM [24]: 100% | inhibition at 5 µM [25]: 100% | inhibition at 5 µM [26]: 100%

CNCCC(Oc1ccccc1OC)c1ccccc1 (stereo not drawn) [Nisoxetine hydrochloride]
inhibition at 5 µM [19]: 4.4% | inhibition at 5 µM [20]: 3.53% | inhibition at 5 µM [21]: 5.27%

Cl.N=C(N)NN [Aminoguanidine hydrochloride]
mean [10]: 2.381 | Replicate_1 [11]: 2.212 | Replicate_2 [12]: 2.55

Cl.NC(N)=NCCNS(=O)(=O)c1cccc2cnccc12 [HA-1004 hydrochloride]
mean (LOPAC_screen_w_protease) [15]: 1.6 | Replicate_1 (LOPAC_screen_w_protease) [8]: 0.9796 | Replicate_2 (LOPAC_screen_w_protease) [9]: 2.221

CC(C)CC(NC(=O)C1OC1C(=O)O)C(=O)NCCCCNC(=N)N (stereo not drawn) [E-64]
mean [16]: 0.2813 | Replicate_1 [17]: 1.4489 | Replicate_2 [18]: -0.8864

COc1ccc(CNC(=O)/C=C/c2ccc3[nH]cc(CCN(C)C)c3c2)cc1 [GR 4661]
mean (sheet LOPAC_screen_w_protease, LOPAC1280 primary screen at 5 µM, with protease, mean of the two replicates): 0.4567 | Replicate_1 (sheet LOPAC_screen_w_protease, LOPAC1280 primary screen at 5 µM, with protease, replicate 1): 1.411 | Replicate_2 (sheet LOPAC_screen_w_protease, LOPAC1280 primary screen at 5 µM, with protease, replicate 2): -0.4976

C=C(C)[C@H]1CN[C@H](C(=O)O)[C@H]1CC(=O)O [Kainic acid]
mean (LOPAC_screen_w_protease): 1.974 | inhibition at 5 µM [27]: 1.88% | inhibition at 5 µM [28]: 2.07%

CN(C)CCC=C1c2ccccc2C=Cc2ccccc21 [Cyclobenzaprine hydrochloride]
mean (LOPAC_screen_w_protease): 2.047 | inhibition at 5 µM [27]: 3.03% | inhibition at 5 µM [28]: 1.06%

O=C(O)[C@@H]1CCN1 [L-azetidine-2-carboxylic acid]
inhibition at 5 µM [1]: -0.00926% | inhibition at 5 µM [2]: -0.0704% | inhibition at 5 µM [3]: 0.0519%

CNCCc1c[nH]c2ccc(O)cc12.O=C(O)C(=O)O
mean (sheet LOPAC_screen_w_protease, LOPAC1280 primary screen with protease, 5 µM compound, mean of the two replicates): 5.527 | Replicate_1 (sheet LOPAC_screen_w_protease, LOPAC1280 primary screen with protease, 5 µM compound, replicate 1): 5.7 | Replicate_2 (sheet LOPAC_screen_w_protease, LOPAC1280 primary screen with protease, 5 µM compound, replicate 2): 5.354

Br.CCSC(=N)N [S-Ethylisothiourea hydrobromide]
mean (sheet LOPAC_screen_w_protease, LOPAC1280 at 5 µM, mean of two replicates): 1.099 | Replicate_1 (sheet LOPAC_screen_w_protease, LOPAC1280 at 5 µM, replicate 1): 2.674 | Replicate_2 (sheet LOPAC_screen_w_protease, LOPAC1280 at 5 µM, replicate 2): -0.4768

COc1ccc(CCNC[C@H](O)c2ccc(O)cc2)cc1OC [R(-)-Denopamine]
mean [16]: -0.5647 | Replicate_1 [17]: -0.1092 | Replicate_2 [18]: -1.02

NNc1nncc2ccccc12 [Hydralazine hydrochloride]
inhibition at 5 µM (read-out: Replicate_1): 4.76% | inhibition at 5 µM (read-out: Replicate_2): 1.31% | inhibition at 5 µM (read-out: mean): 3.03%
